Assay results as given in ChEMBL document CHEMBL4513161, “CO-ADD screening of MMV (CH) - Pandemic Response Box” (2021).
Values after ≈ are worked out from the molar mass of the structure shown.

Legend:
[1] = system: HEK293; experiment: cells; type: functional, Homo sapiens, ATCC CRL1573; conditions: Homo sapiens, ATCC CRL1573, HEK293; ASSAY_TEST Inhibition of Cell Viability; detection method Resazurin; Fluorescence (ex560/em590); MEDIA DMEM with 10% FBS; plate type 384well; TC; CORNING #3712; time 18 hr; read-out: CC50
[2] = system: Pseudomonas aeruginosa; experiment: Antibacterial activity against Pseudomonas aeruginosa PAO397 [PAO1 d(mexAB-oprM) d(mexCD-oprJ) d(mexEF-oprN) d(mexJKL) d(mexXY) d(opmH)] (CO-ADD:GN_211); MIC in CAMBH media using NBS plates, by OD(600); type: functional; conditions: ASSAY_TEST Inhibition of Bacterial Growth, detection method Absorption (OD600), MEDIA CAMHB, plate type 384well, CORNING #3640, time 18 hr
[3] = system: Cryptococcus neoformans
Description: Antifungal activity against Cryptococcus neoformans H99 ATCC 208821 (CO-ADD:FG_002); MIC in YNB media using NBS plates, by Resazurin OD(600-570)

[4] = system: Staphylococcus aureus; experiment: microbe, parasite or virus in culture; conditions: ATCC 43300, 18 h, ASSAY_TEST Inhibition of Bacterial Growth, detection method Absorption (OD600), MEDIA CAMHB, plate type 384well, NBS, CORNING #3640
Description: Antibacterial activity against Staphylococcus aureus MRSA ATCC 43300 (CO-ADD:GP_020); MIC in CAMBH media, using NBS plates, by OD(600)

[5] = system: Escherichia coli; experiment: microbe, parasite or virus in culture; conditions: ATCC 25922, 18 h, ASSAY_TEST Inhibition of Bacterial Growth, detection method Absorption (OD600), MEDIA CAMHB, plate type 384well, NBS, CORNING #3640
Description: Antibacterial activity against Escherichia coli ATCC 25922 (CO-ADD:GN_001); MIC in CAMBH media using NBS plates, by OD(600)

[6] = system: Klebsiella pneumoniae; experiment: microbe, parasite or virus in culture; conditions: ATCC 700603, 18 h, ASSAY_TEST Inhibition of Bacterial Growth, detection method Absorption (OD600), MEDIA CAMHB, plate type 384well, NBS, CORNING #3640
Description: Antibacterial activity against Klebsiella pneumoniae MDR ATCC 70063 (CO-ADD:GN_003); MIC in CAMBH media using NBS plates, by OD(600)

[7] = system: Pseudomonas aeruginosa; experiment: microbe, parasite or virus in culture; conditions: ATCC 27853, 18 h, ASSAY_TEST Inhibition of Bacterial Growth, detection method Absorption (OD600), MEDIA CAMHB, plate type 384well, NBS, CORNING #3640
Description: Antibacterial activity against Pseudomonas aeruginosa ATCC 27853 (CO-ADD:GN_042); MIC in CAMBH media using NBS plates, by OD(600)

[8] = system: Acinetobacter baumannii; experiment: microbe, parasite or virus in culture; conditions: ATCC 19606, 18 h, ASSAY_TEST Inhibition of Bacterial Growth, detection method Absorption (OD600), MEDIA CAMHB, plate type 384well, NBS, CORNING #3640
Description: Antibacterial activity against Acinetobacter baumannii ATCC 19606 (CO-ADD:GN_034); MIC in CAMBH media using NBS plates, by OD600

[9] = system: Candida albicans; experiment: microbe, parasite or virus in culture; conditions: ATCC 90028, ASSAY_TEST Inhibition of Fungal Growth, detection method Absorption (OD530), plate type 384well, NBS, CORNING #3640
Description: Antifungal activity against Candida albicans ATCC 90028 (CO-ADD:FG_001); MIC in YNB media using NBS plates, by OD630

| SMILES | MIC [2] [µM] | MIC [3] [µM] | MIC [4] [µM] | MIC [5] [µM] | MIC [6] [µM] | MIC [7] [µM] | MIC [8] [µM] | MIC [9] [µM] | CC50 [1] [µM] |
| --- | --- | --- | --- | --- | --- | --- | --- | --- | --- |
| Nc1cccc(-c2nc(N)nc(NC3Cc4ccccc4C3)n2)c1 | > 20 | > 20 | > 20 | > 20 | > 20 | > 20 | > 20 | > 20 | > 20 |
| O=C(NCc1ncc(C(F)(F)F)cc1Cl)c1c(Cl)cccc1Cl | > 20 | > 20 | > 20 | > 20 | > 20 | > 20 | > 20 | > 20 | > 20 |
| C[N+]1(C)CCCC(OC(=O)C(O)(c2ccccc2)c2ccccc2)C1 (configuration not stated) [MEPENZOLATE BROMIDE] | > 20 | > 20 | > 20 | > 20 | > 20 | > 20 | > 20 | > 20 | > 20 |
| O=S(=O)(Nc1cccc2cccnc12)c1ccccc1 | > 20 | > 20 | > 20 | > 20 | > 20 | > 20 | > 20 | > 20 | 2.25 |
| CCOC(=O)Nc1cc(NC(C)CC(C)CN(CC)CC)c2nc(-c3ccccc3)c(-c3ccccc3)nc2n1 (configuration not stated) | > 20 | > 20 | > 20 | > 20 | > 20 | > 20 | > 20 | > 20 | > 20 |
| CCOCc1nc2c(N)nc3ccccc3c2n1CC(C)(C)O [RESIQUIMOD] | > 20 | > 20 | > 20 | > 20 | > 20 | > 20 | > 20 | > 20 | > 20 |
| CCCCc1ccc(C(=O)O)nc1 [FUSARIC ACID] | > 20 | > 20 | > 20 | > 20 | > 20 | > 20 | > 20 | > 20 | > 20 |
| N#Cc1c(F)c(Cl)c(NCc2ccccc2)c(C#N)c1F | > 20 | > 20 | 5 (≈ 1.52 µg/mL) | > 20 | > 20 | > 20 | > 20 | > 20 | 5.16 |
| NC(=O)c1ccccc1NC(=O)c1ccc(C(=O)Nc2ccccc2C(N)=O)cc1 | > 20 | > 20 | > 20 | > 20 | > 20 | > 20 | > 20 | > 20 | > 20 |
| O=C(/C=C\n1cnc(-c2cc(C(F)(F)F)cc(C(F)(F)F)c2)n1)NNc1ccccn1 [VERDINEXOR] | > 20 | > 20 | > 20 | > 20 | > 20 | > 20 | > 20 | > 20 | > 20 |
| O=C(Cn1cnc2ccccc2c1=O)Nc1ccccc1 | > 20 | > 20 | > 20 | > 20 | > 20 | > 20 | > 20 | > 20 | > 20 |
| CCc1nc(N)nc(N)c1C#CC(C)c1cc(OC)cc(-c2ccncc2)c1 (configuration not stated) | > 20 | > 20 | 2.5 (≈ 0.934 µg/mL) | > 20 | > 20 | > 20 | > 20 | > 20 | 6.39 |
| COc1ccc2cc3[n+](cc2c1OCCN(CCn1cncn1)Cc1ccc(F)cc1F)CCc1cc2c(cc1-3)OCO2 | > 20 | > 20 | > 20 | > 20 | > 20 | > 20 | > 20 | > 20 | > 20 |
| CN1C(=O)C(c2ccccc2)C(=O)N(c2ccccc2)c2cc(C(F)(F)F)ccc21 (configuration not stated) | > 20 | > 20 | > 20 | > 20 | > 20 | > 20 | > 20 | > 20 | > 20 |

Now from value to molecule, other results behind:

| MIC [2] [µM] | MIC [3] [µM] | MIC [4] [µM] | MIC [5] [µM] | MIC [6] [µM] | MIC [7] [µM] | MIC [8] [µM] | MIC [9] [µM] | SMILES | CC50 [1] [µM] |
| --- | --- | --- | --- | --- | --- | --- | --- | --- | --- |
| > 20 | > 20 | > 20 | > 20 | > 20 | > 20 | > 20 | > 20 | O=C(CCc1ccc2c(c1)OCO2)NCc1ccc(-c2ccccc2F)cc1 | > 20 |
| > 20 | > 20 | > 20 | > 20 | > 20 | > 20 | > 20 | > 20 | CC(C)(C)OC(=O)NCc1ccc(C(=O)N[C@H]2CCOC2=O)cc1 | > 20 |
| > 20 | > 20 | 0.625 (≈ 0.213 µg/mL) | > 20 | > 20 | > 20 | > 20 | > 20 | Cc1c(N)cccc1Cn1ccc(OCCc2cccs2)cc1=O [CG-400549] | > 20 |
| > 20 | > 20 | > 20 | > 20 | > 20 | > 20 | > 20 | > 20 | CC(C)(C)c1cc(C(=O)/C(C#N)=N/Nc2cccc(Cl)c2)no1 | > 20 |
| > 20 | > 20 | > 20 | > 20 | > 20 | > 20 | > 20 | > 20 | O=C(O)COc1cccc2c1CC[C@](O)(COC(=O)N(c1ccccc1)c1ccccc1)C2 | > 20 |
| ≤ 0.156 | > 20 | ≤ 0.156 | 0.625 (≈ 0.225 µg/mL) | 20 (≈ 7.21 µg/mL) | 1.25 (≈ 0.45 µg/mL) | 20 (≈ 7.21 µg/mL) | > 20 | CC1CCc2c(N3CCC(O)CC3)c(F)cc3c(=O)c(C(=O)O)cn1c23 (configuration not stated) [NADIFLOXACIN] | > 20 |
| > 20 | > 20 | > 20 | > 20 | > 20 | > 20 | > 20 | > 20 | CCOC(=O)/C=C/[C@H](C[C@@H]1CCNC1=O)NC(=O)[C@@H](CC(=O)[C@@H](NC(=O)c1cc(C)on1)C(C)C)Cc1ccc(F)cc1 | > 20 |
| > 20 | > 20 | > 20 | > 20 | > 20 | > 20 | > 20 | > 20 | NC(=O)c1nccn([C@@H]2O[C@H](CO)[C@@H](O)[C@H]2O)c1=O | > 20 |
| > 20 | > 20 | > 20 | > 20 | > 20 | > 20 | > 20 | > 20 | O=[N+]([O-])c1cn2c(n1)OC[C@@H](OCc1ccc(OC(F)(F)F)cc1)C2 [PRETOMANID] | > 20 |
| > 20 | > 20 | > 20 | > 20 | > 20 | > 20 | > 20 | > 20 | N#CCN1C(=O)COc2cc(F)c(N3C(=O)c4ccccc4C3=O)cc21 | > 20 |
| > 20 | > 20 | > 20 | > 20 | > 20 | > 20 | > 20 | > 20 | O=C(NN1C(=O)[C@@H]2[C@@H]3C=C[C@@H]([C@H]4C[C@@H]34)[C@@H]2C1=O)c1ccc(C(F)(F)F)cc1 [TECOVIRIMAT] | > 20 |
| > 20 | > 20 | > 20 | > 20 | > 20 | > 20 | > 20 | > 20 | C/C(=N\NC(=O)C1CC1c1ccccc1)c1ccc(NC(=O)c2ccco2)cc1 (configuration not stated) | > 20 |
| > 20 | > 20 | > 20 | > 20 | > 20 | > 20 | > 20 | > 20 | Cc1nc(Nc2ccc(F)cc2)nc(N2CCc3ccccc3C2C)c1C (configuration not stated) [REVAPRAZAN] | > 20 |
| > 20 | > 20 | > 20 | > 20 | > 20 | > 20 | > 20 | > 20 | CCCCSc1nc(N)c2[nH]c(=O)c(=O)n(Cc3ccccc3)c2n1 | > 20 |
